Measured values as given in patent publication US8354425B2, “Azabicyclic carboxamide derivatives, preparation thereof and therapeutic use thereof” (Sanofi, priority 2008, dated 2013).

How the values were obtained:
[1] = target: T1, TRPV1 receptor (Rattus norvegicus, UniProt O35433); experiment: Test of inhibition of the current induced with capsaicin on rat DRGs (whole-cell patch-clamp); format: cell-based; conditions: inhibition of control capsaicin response, newborn rat DRG neurones
T1 construct: DRG neurones naturally express the TRPV1 receptor; endogenous in cells; host or cells: primary culture of newborn rat dorsal root ganglion neurones
T1 sequence (O35433 whole entry): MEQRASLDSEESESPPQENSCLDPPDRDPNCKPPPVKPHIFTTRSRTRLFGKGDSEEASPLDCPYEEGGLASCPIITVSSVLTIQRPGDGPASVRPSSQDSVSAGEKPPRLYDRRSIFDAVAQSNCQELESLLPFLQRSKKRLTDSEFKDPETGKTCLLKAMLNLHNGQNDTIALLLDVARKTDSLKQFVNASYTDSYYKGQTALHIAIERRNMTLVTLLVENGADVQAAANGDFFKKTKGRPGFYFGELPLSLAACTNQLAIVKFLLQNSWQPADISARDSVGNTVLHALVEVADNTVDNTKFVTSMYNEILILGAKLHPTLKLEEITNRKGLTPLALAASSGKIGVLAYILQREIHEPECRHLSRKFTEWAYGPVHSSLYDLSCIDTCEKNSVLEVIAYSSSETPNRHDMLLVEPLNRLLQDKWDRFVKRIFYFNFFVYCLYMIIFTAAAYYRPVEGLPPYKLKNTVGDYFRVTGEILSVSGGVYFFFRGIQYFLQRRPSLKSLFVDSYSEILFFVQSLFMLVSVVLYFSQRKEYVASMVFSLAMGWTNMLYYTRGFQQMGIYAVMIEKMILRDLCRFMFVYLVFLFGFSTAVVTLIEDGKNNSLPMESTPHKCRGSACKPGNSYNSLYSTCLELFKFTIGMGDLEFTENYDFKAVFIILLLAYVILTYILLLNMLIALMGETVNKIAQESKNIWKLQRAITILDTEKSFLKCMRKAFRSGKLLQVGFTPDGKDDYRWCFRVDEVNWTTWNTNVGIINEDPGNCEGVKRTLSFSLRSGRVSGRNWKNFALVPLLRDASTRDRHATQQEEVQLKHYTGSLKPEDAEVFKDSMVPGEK
Description: Test of inhibition of the current induced with capsaicin on rat DRGs • Primary culture of rat dorsal root ganglion (DRG) cells:
DRG neurones naturally express the TRPV1 receptor.
The primary cultures of newborn rat DRGs are prepared using 1-day-old rats. Briefly, after dissection, the ganglions are trypsinized and the cells dissociated by mechanical trituration. The cells are resuspended in an Eagle basal culture medium containing 10% foetal calf serum, 25 mM KCl, 2 mM glutamine, 100 μg/ml gentamicin and 50 ng/ml of NGF, and then deposited on glass slides coated with laminin (0.25×10^6 cells per slide), which are then placed in Corning 12-well dishes. The cells are incubated at 37° C. in a humidified atmosphere containing 5% CO2 and 95% air. […]
The measuring chambers (volume 800 μl) containing the cell preparation are placed on the platform of an inverted microscope (Olympus IMT2) equipped with Hoffman optics (Modulation Contrast, New York) and observed at a magnification of 400×. […] The overall currents (membrane potential set at −60 mV) are recorded with an Axopatch 1D amplifier (Axon Instruments, Foster City, Calif.), connected to a PC running the Pclamp8 software (Axon Instrument). The current plots are recorded on paper and simultaneously digitized (sampling frequency 15 to 25 Hz) and acquired on the hard drive of the PC. […]

[2] = target: T2, local TRPV1 receptors (Mus musculus, UniProt Q704Y3); experiment: Pain induced by intraplantar administration of capsaicin to mice; format: in vivo; conditions: 10 mg/kg orally 120 minutes before intraplantar capsaicin, n=10
T2 construct: from tissue; host or cells: living mouse, hind leg (intraplantar capsaicin injection)
T2 sequence (Q704Y3 whole entry): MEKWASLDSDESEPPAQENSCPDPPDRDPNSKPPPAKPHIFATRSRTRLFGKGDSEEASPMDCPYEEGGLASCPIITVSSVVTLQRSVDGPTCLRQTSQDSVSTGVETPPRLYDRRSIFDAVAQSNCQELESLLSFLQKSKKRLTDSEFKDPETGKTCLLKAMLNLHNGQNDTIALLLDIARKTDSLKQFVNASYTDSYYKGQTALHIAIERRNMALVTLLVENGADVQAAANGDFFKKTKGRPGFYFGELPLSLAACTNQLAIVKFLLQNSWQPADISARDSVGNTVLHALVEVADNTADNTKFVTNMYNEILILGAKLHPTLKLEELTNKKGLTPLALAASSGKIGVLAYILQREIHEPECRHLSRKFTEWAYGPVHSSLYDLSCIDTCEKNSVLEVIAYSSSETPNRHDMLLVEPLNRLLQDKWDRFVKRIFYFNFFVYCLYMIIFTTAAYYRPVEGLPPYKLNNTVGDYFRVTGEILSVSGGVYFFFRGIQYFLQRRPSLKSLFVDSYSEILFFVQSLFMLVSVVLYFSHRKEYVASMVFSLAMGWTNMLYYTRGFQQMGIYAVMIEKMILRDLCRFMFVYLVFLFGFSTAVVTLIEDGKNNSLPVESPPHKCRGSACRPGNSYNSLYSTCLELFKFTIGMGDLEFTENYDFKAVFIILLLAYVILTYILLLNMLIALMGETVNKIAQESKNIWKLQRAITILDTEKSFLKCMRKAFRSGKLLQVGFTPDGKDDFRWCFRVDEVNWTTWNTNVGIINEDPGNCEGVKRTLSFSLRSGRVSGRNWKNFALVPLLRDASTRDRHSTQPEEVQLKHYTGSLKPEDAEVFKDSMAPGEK
Description: Pain induced by intraplantar administration of capsaicin to mice.
The intraplantar injection of capsaicin to mice rapidly produces short-lived nociceptive behaviour, which is reflected by licking, biting and flexing of the administered leg. These nociceptive responses are probably associated with the activation of the local TRPV1 receptors by the capsaicin.
(E)-Capsaicin is initially diluted to 3 mg/ml in DMSO, and then diluted again for its final use to 1.5 μg/20 μl in physiological saline. The administration of solvent has no effect on the behaviour of the mouse. The capsaicin is injected into the hind legs of the animal, on the upper face.
The test compounds are administered orally 120 minutes before the injection of capsaicin. Two hours after administration of the compounds, the mice are placed in a glass beaker. The nociceptive behaviour of the animals is then assessed immediately by the experimenter, and the duration of the capsaicin-induced behavioural manifestations is timed over a period of 2 minutes (licking and biting, total or partial flexure of the injected leg).
For each compound, an inhibition corresponding to the mean of the capsaicin-induced nociceptive responses, in response to a dose of test product (expressed in mg/kg) administered orally to a sample of a given number (n) of mice, is determined. […]

Compound | melting point [°C] | inhibition at 0.1 µM ([1]; compound at 100 nM) [%] | % inhibition of the capsaicin-induced nociceptive responses [2] | inhibition at 0.001 µM ([1]; compound at 1 nM) [%]
O=C(Nc1cc2cc[nH]c2cn1)c1cc2cc(F)ccc2n1Cc1cccc(F)c1 [Compound 8, N-(1H-Pyrrolo[2,3-c]pyrid-5-yl)-5-fluoro-1-[(3-fluorophenyl]methyl]-1H-indole-2-carboxamide] | 203 to 204 | 67.5 | – | –
O=C(Nc1cnc2[nH]ccc2c1)c1cc2cc(F)ccc2n1Cc1cccc(F)c1 [Compound 2, N-[1H-Pyrrolo[2,3-b]pyrid-5-yl]-5-fluoro-1-(3-fluorobenzyl)-1H-indole-2-carboxamide] | – | – | 61% (±6%) | 82
